From patent US20250340520A1, “CRYSTALLINE FORMS OF SODIUM (5-(4-BROMOPHENYL)-6-(2-((5-BROMOPYRIMIDIN-2-YL)OXY)ETHOXY)PYRIMIDIN-4-YL)(SULFAMOYL)AMIDE” (IDORSIA PHARMACEUTICALS LTD, priority 2022, published 2025)

Test: Comparative stability: HPLC assay of samples stored in open vials
Format: physicochemical
Settings: for assay after storage: open vial; for Initial assay: before storage, HPLC assay
Method: The assay was determined by use of UV-HPLC (e.g., Shimadzu Nexera X2 System) with an autosampler temperature set at 25° C. and a column temperature set at 50° C. Typically 1 μL of sample is injected and separation is obtained by use of a Phenomenex Gemini 5.0 μm 110 Å, 50×2.0 mm column using a flow of 1.5 mL/min. Samples are typically prepared by solubilization in acetonitrile/carbonate buffer pH10 1/1. A gradient method is used with solvent A consisting of Trizma base buffer 50 mM pH 9 (adjusted with HCl) and solvent B consisting of Acetonitrile+5% (v/v) Trizma base buffer 50 mM pH 9 (adjusted with HCl). Following gradient is typically used: […]

NS(=O)(=O)[N-]c1ncnc(OCCOc2ncc(Br)cn2)c1-c1ccc(Br)cc1.[Na+] [COMPOUND in crystalline form 1, sodium (5-(4-bromophenyl)-6-(2-((5-bromopyrimidin-2-yl)oxy)ethoxy)pyrimidin-4-yl)(sulfamoyl)amide]
assay after storage (40° C., 7 days, 11% RH): 104.4% | assay after storage (40° C., 7 days, 75% RH): 104.0% | assay after storage (60° C., 7 days, 11% RH): 104.5% | assay after storage (60° C., 7 days, 75% RH): 102.6% | assay after storage (80° C., 3 days, 11% RH): 103.4% | assay after storage (80° C., 3 days, 75% RH): 72.4% | Initial assay: 104.1% | chemical stability in comparison to aprocitentan free acid form (in crystalline Form A) (under certain experimental conditions of Table 5): superior chemical stability

NS(=O)(=O)Nc1ncnc(OCCOc2ncc(Br)cn2)c1-c1ccc(Br)cc1 [{5-(4-bromo-phenyl)-6-[2-(5-bromo-pyrimidin-2-yloxy)-ethoxy]-pyrimidin-4-yl}-sulfamide, reference compound]
assay after storage (40° C., 7 days, 11% RH): 97.2% | assay after storage (40° C., 7 days, 75% RH): 91.8% | assay after storage (60° C., 7 days, 11% RH): 96.7% | assay after storage (60° C., 7 days, 75% RH): 93.7% | assay after storage (80° C., 3 days, 11% RH): 89.7% | assay after storage (80° C., 3 days, 75% RH): 0.3% | Initial assay: 96.9%
